This is an account of results in patent publication US7232912B2, “Indazole compounds, pharmaceutical compositions, and methods for mediating or inhibiting cell proliferation” (Agouron Pharmaceuticals, Inc., priority 2000, dated 2007).

The target in test [1] is CDK4/cyclin D3 (Homo sapiens, UniProt P11802). Put plainly: Inhibition of CDK4/Cyclin D Retinoblastoma Kinase Activity. As to conditions: apparent Ki. It counts as biochemical. Put shortly: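 Human CDK4/cyclin D3 (full-length or cyclin D3 1–264), insect-cell expressed, at 5 or 50 nM with His-tagged Rb 386–928 substrate, 25 μM ATP plus [32P/33P]ATP, pH 7.4, 2% DMSO, 30 °C for 20 min; tight binders used 5 nM enzyme for 60 min. Filter-captured phospho-Rb quantified by phosphorimager. Apparent Ki from competitive or tight-binding inhibition fits.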
Sequence of CDK4/cyclin D3 (P11802 2-303 limits assumed): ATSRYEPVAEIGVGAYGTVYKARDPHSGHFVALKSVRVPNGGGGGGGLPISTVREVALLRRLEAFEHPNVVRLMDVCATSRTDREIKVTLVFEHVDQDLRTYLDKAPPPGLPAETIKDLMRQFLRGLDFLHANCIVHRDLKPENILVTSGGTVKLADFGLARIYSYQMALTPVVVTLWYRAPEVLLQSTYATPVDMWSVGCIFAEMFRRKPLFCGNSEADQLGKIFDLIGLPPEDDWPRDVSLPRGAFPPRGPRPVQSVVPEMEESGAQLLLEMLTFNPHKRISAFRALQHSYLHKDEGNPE
Sequence of CDK4/cyclin D3 (P30281 1-264 limits assumed, further chain): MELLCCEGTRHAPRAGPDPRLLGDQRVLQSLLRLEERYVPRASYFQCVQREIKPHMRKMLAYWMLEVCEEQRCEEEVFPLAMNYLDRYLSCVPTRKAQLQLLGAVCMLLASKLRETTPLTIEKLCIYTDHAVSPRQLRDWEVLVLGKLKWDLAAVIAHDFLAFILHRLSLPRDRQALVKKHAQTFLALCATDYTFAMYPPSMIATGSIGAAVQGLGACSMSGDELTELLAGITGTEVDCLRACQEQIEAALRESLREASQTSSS

The target in test [2] is T1, CDK2/cyclin A (Homo sapiens, UniProt P24941).
T1 construct: made in house; host or cells: CDK2: insect cells (baculovirus); cyclin A: E. coli
Kind of test: Inhibition of CDK2/Cyclin A Retinoblastoma Kinase Activity. Type of test: biochemical. As to conditions: apparent Ki. A digest of the protocol: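 Baculovirus-expressed CDK2 complexed with proteolyzed cyclin A, at 150 nM or 5 nM, phosphorylating an Rb fragment with 25 µM [32/33P]ATP in HEPES pH 7.4, 2% DMSO. Reactions run 20 min at 30°C, EDTA-stopped, filter-captured; apparent Ki from competitive or tight-binding competitive fits.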

Test [3] has as its target T2, human CHK1 (Homo sapiens, UniProt O14757).
T2 construct: C-terminally His-tagged full-length human CHK1 (FL-CHK1) was expressed using the baculovirus/insect cell system; made in house; host or cells: baculovirus/insect cells
T2 sequence (O14757 1-476): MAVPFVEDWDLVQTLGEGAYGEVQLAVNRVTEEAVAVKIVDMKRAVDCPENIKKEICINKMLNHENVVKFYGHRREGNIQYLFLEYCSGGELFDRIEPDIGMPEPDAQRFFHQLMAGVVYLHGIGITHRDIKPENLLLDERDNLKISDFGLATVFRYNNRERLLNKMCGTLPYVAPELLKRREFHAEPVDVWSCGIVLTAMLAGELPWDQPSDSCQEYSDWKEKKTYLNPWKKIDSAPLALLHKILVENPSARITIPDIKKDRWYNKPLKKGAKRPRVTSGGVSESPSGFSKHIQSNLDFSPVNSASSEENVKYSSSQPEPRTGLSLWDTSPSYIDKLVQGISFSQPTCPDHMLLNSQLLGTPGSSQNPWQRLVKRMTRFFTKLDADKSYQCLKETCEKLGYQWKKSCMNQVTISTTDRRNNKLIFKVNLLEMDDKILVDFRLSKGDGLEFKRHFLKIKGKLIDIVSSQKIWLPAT
Put plainly: CHK1 Assay (coupled spectrophotometric). Type of test: biochemical. The source says: C-terminally His-tagged full-length human CHK1 (FL-CHK1) was expressed using the baculovirus/insect cell system. It contains 6 histidine residues (6×His-tag) at the C-terminus of the 476 amino acid human CHK1. The protein was purified by conventional chromatographic techniques.
The production of ADP from ATP that accompanies phosphoryl transfer to the synthetic substrate peptide Syntide-2 ([…]) was coupled to oxidation of NADH using phosphoenolpyruvate (PEP) through the actions of pyruvate kinase (PK) and lactic dehydrogenase (LDH). The oxidation of NADH was monitored by following the decrease of absorbance at 340 nm (ε340=6.22 cm^−1 mM^−1) using a HP8452 spectrophotometer. Typical reaction solutions contained: […]; 0.15 mM NADH; 28 units of LDH/ml; 16 units of PK/ml; 3 mM DTT; 0.125 mM Syntide-2; 0.15 mM ATP; 25 mM MgCl2 in 50 mM TRIS, pH 7.5; and 400 mM NaCl. Assays were initiated with 10 nM of FL-CHK1. Ki values were determined by measuring initial enzyme activity in the presence of varying concentrations of test compounds. The data were analyzed using Enzyme Kinetic and Kaleidagraph software.

The test system of test [4] is FAK. Kind of test: Coupled Spectrophotometric (FAK) Assay. It counts as biochemical. The method, then:
Coupled Spectrophotometric (FAK) Assay
Tyrosine kinase assays were monitored using a Beckman DU 650 Spectrophotometer. Production of ADP was coupled to oxidation of NADH using phosphoenolpyruvate (PEP) through the actions of pyruvate kinase (PK) and lactic dehydrogenase (LDH). The oxidation of NADH was monitored by following the decrease in absorbance at 340 nm (ε340=6.22 cm^−1 mM^−1). Typical reaction solutions contained: 1 mM PEP, 250 μM NADH, 50 units of LDH/mL, 20 units of PK/mL, 5 mM DTT, in 200 mM Hepes, pH 7.5 and varying concentrations of poly(E4Y1), ATP and MgCl2. Assays were initiated with 40 nM of […].

The target of test [5] is T3, LCK tyrosine kinase (Homo sapiens, UniProt P06239, C224D/P223M).
T3 construct: starting from amino acid 223 to the end of the protein at amino acid 509; made in house; host or cells: insect cells
T3 sequence (P06239 223-509 P223M/C224D): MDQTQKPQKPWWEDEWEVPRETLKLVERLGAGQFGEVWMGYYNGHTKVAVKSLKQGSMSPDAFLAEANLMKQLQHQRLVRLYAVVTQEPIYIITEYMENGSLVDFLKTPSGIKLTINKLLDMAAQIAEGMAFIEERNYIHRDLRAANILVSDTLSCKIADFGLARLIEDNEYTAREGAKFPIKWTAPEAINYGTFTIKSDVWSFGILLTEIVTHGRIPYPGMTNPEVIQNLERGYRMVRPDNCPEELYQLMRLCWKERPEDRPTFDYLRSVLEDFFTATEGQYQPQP
Kind of test: Inhibition of phosphorylated LCK tyrosine kinase activity. It counts as biochemical. As to conditions: read-out: LCK % Inhib. at 1 μM. As to the method:
(§1) Inhibition of Phosphorylated FGF Receptor and LCK Tyrosine Kinase Activity
(§2) Cloning, expression and purification of the cytosolic domain of FGFR1 tyrosine kinase (amino acids 456–766) containing three amino acid substitutions (L457V, C488A, and C584S) were conducted as previously described (Mohammadi, M., Schlessinger, J., & Hubbard, S. R. (1996) Cell 86, 577–587). This domain was expressed in Sf9 insect cells using a baculovirus expression vector, and protein was purified using conventional techniques. The LCK tyrosine kinase was expressed in insect cells as an N-terminal deletion starting from amino acid 223 to the end of the protein at amino acid 509. The N-terminus of the protein also had two amino acid substitutions, P223M and C 224D. Kinases were purified using conventional chromatographic methods.
(§3) Tyrosine kinase activity was measured using a coupled, continuous spectrophotometric assay, in which production of phosphorylated poly(Glu, Tyr; 4:1) substrate and ADP is coupled to the pyruvate kinase-catalyzed transfer of a phosphate from phosphoenolpyruvate to ADP, with generation of pyruvate and regeneration of ATP. Pyruvate production is in turn coupled to the lactate dehydrogenase-catalyzed reduction of pyruvate to form lactate, with concomitant conversion of NADH to NAD+. Loss of NADH is monitored by measuring absorbance at 340 nm (see e.g., Technikova-Dobrova et al., “Spectrophotometric determination of functional characteristics of protein kinases with coupled enzymatic assay,” FEBS Letters, vol. 292 (1991), pp. 69–72). Enzyme activity was measured in the presence of 200 mM HEPES (pH 7.5), 2 mM phosphoenolpyruvate, 0.3 mM NADH, 20 mM MgCl2, 100 μM ATP, 5 mM DTT, 5.1 or 25 mM poly (Glu,Tyr) 4:1 for P-FGF or P-LCK assays, respectively, and 15 units/mL each of pyruvate kinase and lactate dehydrogenase. Phosphorylated FGF receptor kinase was present at 100 nM and phosphorylated LCK kinase was present at 50 nM. Assays were performed under initial rate conditions at 37° C., and rates were corrected for any background rate measured in the absence of enzyme. Percent inhibition was calculated relative to control enzyme assayed in the presence of 2% (v/v) DMSO.

For test [6], the target named is T4, FGFR1 tyrosine kinase (Homo sapiens, UniProt P11362, C488A/C584S/L457V).
T4 construct: the cytosolic domain of FGFR1 tyrosine kinase (amino acids 456–766); made in house; host or cells: Sf9 insect cells (baculovirus)
T4 sequence (P11362 456-766 L457V/C488A/C584S): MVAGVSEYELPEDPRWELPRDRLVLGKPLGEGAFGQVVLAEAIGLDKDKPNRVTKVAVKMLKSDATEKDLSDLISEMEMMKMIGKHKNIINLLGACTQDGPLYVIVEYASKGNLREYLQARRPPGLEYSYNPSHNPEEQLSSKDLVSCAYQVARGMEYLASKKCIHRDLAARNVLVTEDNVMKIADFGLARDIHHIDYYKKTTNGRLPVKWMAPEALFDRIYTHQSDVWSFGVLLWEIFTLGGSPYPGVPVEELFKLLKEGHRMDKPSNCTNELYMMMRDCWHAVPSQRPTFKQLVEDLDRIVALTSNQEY
Put plainly: Inhibition of phosphorylated FGF receptor tyrosine kinase activity. Type of test: biochemical. Conditions: read-out: FGF % Inhib. at 1 μM. The method, then: as §1, §2, §3

The subject of test [7] is HCT 116 cell line. Kind of test: Inhibition of Cell Growth (MTT tetrazolium salt assay). Type of test: cell-based. Conditions: Homo sapiens, HCT 116, MTT; for IC50: 50% inhibition of growth, read-out: HCT 116 IC50; for IC90: read-out: HCT 116 IC90. Put shortly: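 HCT 116 cells in McCoy's 5A were dosed 4 h after plating, in 0.5% (v/v) DMSO, then held 4–6 days at 37 °C, 5% CO2. MTT at 0.2 mg/mL final for 4 h; DMSO-solubilized formazan read at 540 nm. IC50 taken from the linear part of a semi-log plot versus DMSO-only controls.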
On the technique in general: Formazan colour is commonly taken as a measure of viable cells.

As to `C(=C\c1n[nH]c2ccc(-c3ccccc3)cc12)/c1ccccc1` [Example 1, 5-Phenyl-3-Styryl-1H-Indazole], the Ki in test [1] came to 1700 nM; in test [2], 11000 nM; in test [3], 6700 nM. For the same compound, the “FAK % Inhibition at 1 μM” value in test [4] is 32%.

In the case of `COc1cccc(-c2ccc3[nH]nc(-c4nc5ccccc5[nH]4)c3c2)c1` [Example 5, 3-(1H-Benzoimidazol-2-yl)-5-(3-methoxyphenyl)-1H-indazole], the Ki was found to be 480 nM in test [1] and 690 nM in test [2]. This compound registered an inhibition at 20 µM in test [3] of 56%.

As for `Cc1c(O)cccc1-c1ccc2[nH]nc(-c3nc4c(O)cccc4[nH]3)c2c1` [Example 21, 2-[5-(3-Hydroxy-2-methyl-phenyl)-1H-indazol-3-yl]-1H-benzoimidazol-4-ol], the results for the Ki in test [1], in test [2] and in test [3] were 237 nM, 49 nM and 8550 nM, respectively. The results for the inhibition at 1 µM in test [5] and in test [6] were 23% and 54%, respectively.

On to `OC1CCN(c2ccc3[nH]nc(/C=C/c4ccccc4)c3c2)CC1` [Example 27, 1-[3-((E)Styryl)-1H-indazol-5-yl]-piperidin-4-ol], for which the Ki in test [1] came out at 1500 nM; in test [2], 1600 nM. Also, in test [4], the “FAK % Inhibition at 1 μM” value came to 44%.

Take `OC1CCCN(c2ccc3[nH]nc(/C=C/c4ccccc4)c3c2)C1` (stereo not drawn) [Example 28, 1-[3-((E)Styryl)-1H-indazol-5-yl]-piperidin-3-ol]: the Ki in test [1] was determined as 680 nM; in test [2], 720 nM. For the same compound, the “FAK % Inhibition at 1 μM” value in test [4] was determined as 61%.

As usually defined, the IC50 is the point on the concentration scale where inhibition reaches its midpoint. Usually IC90 stands for the concentration needed for an effect of 90%. Turning to `Clc1ccncc1-c1ccc2[nH]nc(/C=C/c3ccccc3)c2c1` [Example 42, 5-(4-Chloro-pyridin-3-yl)-3-(E)-styryl-1H-indazole], the Ki in test [1] was found to be 8.2 nM. Further, in test [2], the Ki came to 17.2 nM. Besides, in test [6], the inhibition at 1 µM was determined as 70.3%. For the same compound, the “FAK % Inhibition at 1 μM” value in test [4] is 78%. Further, in test [7], the IC50 is 3000 nM and the IC90 is 5000 nM.

Regarding `Fc1cccc2cncc(-c3ccc4[nH]nc(/C=C/c5ccccc5)c4c3)c12` [Example 44], the Ki turned out to be 19 nM in test [1] and 29 nM in test [2]. Besides, the inhibition at 1 µM in test [6] came out at 56.2%. For the same compound, in test [7], the concentration for half-maximal inhibition (IC50) was determined as 5000 nM. Besides, the IC90 in test [7] was found to be 5000 nM.

Regarding `Nc1cccc2c(-c3ccc4[nH]nc(/C=C/c5ccccc5)c4c3)cncc12` [Example 45], in test [1], the Ki came to 12 nM. The Ki in test [2] stood at 17 nM. Further, in test [6], the inhibition at 1 µM came out at 58.7%. In test [4], the “FAK % Inhibition at 1 μM” value was 63%. In addition, in test [7], the IC50 is 2100 nM and the IC90 was 5000 nM.

On to `COc1c(O)cccc1-c1ccc2[nH]nc(-c3nc4ccccc4[nH]3)c2c1` [Example 47, 3-[3-(1H-benzoimidazol-2-yl)-1H-indazol-5-yl]-2-methoxy-phenol], for which, in test [1], the Ki stood at 94 nM. For the same compound, in test [2], the Ki stood at 100 nM. Moreover, the inhibition at 1 µM in test [6] is 81.1%. Also, in test [7], the IC50 stood at 2100 nM and the IC90 amounted to 5000 nM.

On to `Oc1ccc(F)c(-c2ccc3[nH]nc(-c4nc5ccccc5[nH]4)c3c2)c1F` [Example 49, 3-[-3-(1H-Benzoimidazol-2-yl)-1H-indazol-5-yl]-2,4-difluoro-phenol], for which the Ki in test [1] was 95 nM; in test [2], 49 nM. Besides, in test [6], the inhibition at 1 µM is 86.7%. Moreover, the IC50 in test [7] amounted to 2300 nM. Further, the IC90 in test [7] worked out at 4800 nM.

As to `Oc1cc(F)c(-c2ccc3[nH]nc(-c4nc5ccccc5[nH]4)c3c2)c(F)c1` [Example 50, 4-[-3-(1H-Benzoimidazol-2-yl)-1H-indazol-5-yl]-3,5-difluoro-phenol], the Ki in test [1] amounted to 253 nM. The Ki in test [2] was found to be 73 nM. In addition, the inhibition at 1 µM in test [6] turned out to be 89.6%. For the same compound, in test [7], the half-maximal inhibitory concentration (IC50) was found to be 1800 nM and the IC90 amounted to 5000 nM.

For `Cc1c(-c2ccc3[nH]nc(-c4nc5ccccc5[nH]4)c3c2)cncc1-c1c[nH]cn1` [Example 65, 3-(1H-Benzoimidazol-2-yl)-5-[5-(1H-imidazol-4-yl)-4-methyl-pyridin-3-yl]-1H-indazole], the Ki in test [1] stood at 2.8 nM. The Ki in test [2] was 1 nM. The inhibition at 1 µM in test [6] worked out at 44.1%. Moreover, in test [7], the IC50 is 390 nM and the IC90 was found to be 1300 nM.

Take `Cc1c(-c2ccncc2)cncc1-c1ccc2[nH]nc(-c3nc4c(CN(C)C)cccc4[nH]3)c2c1` [Example 68, Dimethyl-{2-[5-(4-methyl-[3,4′]bipyridinyl-5-yl)-1H-indazol-3-yl]-1H-benzoimidazol-4-ylmethyl}-amine]: in test [1], the Ki worked out at 4.7 nM. For the same compound, the Ki in test [2] is 1.1 nM. For the same compound, the inhibition at 1 µM in test [6] was determined as 12.6%. In addition, in test [7], the IC50 is 160 nM and the IC90 was found to be 600 nM.

Take `Nc1ccc2[nH]nc(-c3ccc[nH]3)c2c1` [Example 84, 5-Amino-3-(2-Pyrrolyl)-1H-indazole]: the Ki in test [1] is 34000 nM; in test [2], 28000 nM; in test [3], 22500 nM.
